From patent US10941187B2 (The United States of America, as represented by the …, priority 2001, dated 2021)

Tests used:
[1] = Stability in human serum by MALDI mass spectrometry; assay type: in vitro ADME; conditions: 100% serum, 2 h at 37° C.
Protocol: Both compounds (100 μM, 100 μl ) were incubated in an equivalent volume of human serum at 37° C. for 2 h. In all cases, enzymatic reactions were quenched by the addition of trifluoroacetic acid (0.1% v/v final concentration). Samples were immediately analyzed using Matrix Assisted […] Desorption Ionisation-Time Of Flight (MALDI-TOF) mass spectrometry. A Micromass MALDI-TOF (Micromass, Beverly, Mass.) reflectron instrument was used at a laser energy of 15-25% over a mass range of 1000-6000 Da, with 5 laser shots summed per spectrum. Alpha-cyano-4-hydroxycinnamicacid (Sigma, St. Louis, Mo.) was used as a matrix and was prepared to a concentration of 10 mg/ml in a 8 mg/ml ammonium carbonate (Sigma, St. Louis, Mo.) buffer. One microlitre samples were diluted 50/50 v/v with matrix before being transferred to the MALDI plate.

Aβ1-40 [2] = assay: Aβ1-40 sandwich ELISA of PC12 conditioned media; assay type: cell-based, rat; conditions: PC12 cells, relative to control cells
PC12 cells = assay: Neurite outgrowth in PC12 cells; assay type: cell-based, rat; conditions: low serum medium
Protocol: Three dishes for each treatment condition were prepared. Treatments began 24 hours after seeding, once cells were well attached.
PC12 cells were grown on 60 mm dishes as above and cultured for four days. During this time neurite outgrowth was quantified daily. Five random fields of cells were evaluated per dish and the proportion of neurite-bearing cells was determined. Approximately 100 cells per field were scored for neurites equal to or greater in length than that of the cell body. A cell was only scored once, although it may have had more than one process per cell.

synaptophysin = assay: Synaptophysin expression in PC12 cells (Western blot); assay type: cell-based, rat; conditions: PC12 cell lysates, relative to untreated
Protocol: The synaptophysin monoclonal antibody (Oncogene Research Products, San Diego Calif.), which stains neurosecretory vesicles of PC12 cells, was used. The membranes were blocked with 20 mM Tris, 500 mM NaCl pH 7.4, 1% (w/v) casein (BioRad, San Diego Calif.) at 37° C. for 1 hour. Primary antibody was diluted in block and incubated with the proteins overnight at 4° C. The membrane was vigorously washed with 20 mM Tris pH 7.4, 150 mM NaCl and 0.05% Tween-20 (TBST), three times for 15 minutes at room temperature. The peroxidase-linked secondary antibody in block was incubated with the membrane for 2 hours at room temperature. Peroxidase-linked anti-mouse IgM (Chemicon, Tenecula, Calif.) was used as the secondary antibody against synaptophysin. Excess antibody was washed off with three vigorous washes in TBST prior to incubation in ECL Plus (Amersham, Philadelphia, Pa.) for 5 minutes. The membrane was subsequently exposed to photographic film.

Beta-2/NeuroD = Beta-2/NeuroD expression in PC12 cells (Western blot); assay type: cell-based, rat; conditions: PC12 cell lysates
Excerpt: Beta-2/NeuroD plays a major role in both neuronal and pancreatic endocrine development. […] Beta-2 expression in pancreatic endocrine cells, the intestine and the brain, activates insulin gene transcription and can induce neurons to differentiate. Mutant mice lacking the functional Beta-2 gene have a striking reduction in the number of insulin-producing beta cells, fail to develop mature islets and as a consequence develop severe diabetes often resulting in perinatal death (Naya et al 1997). Thus, Beta-2/NeuroD is essential for in vivo pancreatic development and neuronal differentiation.
NeuroD production was determined by Western blot analysis using anti-NeuroD antibody as described above for synaptophysin antibody, except peroxidase-linked anti-goat IgG (Santa Cruz Biotechnology Inc.) was used as the secondary antibody. […] Indeed, Noma et al (1999) have shown that overexpression of NeuroD in transfected PC12 cells induced morphological changes such as neurite-like processes and synapse-like structures, without a differentiating-inducing agent such as NGF.

[3] = tested on: cultured hippocampal neurons; assay: Glutamate-induced apoptotic cell death in hippocampal neurons (Hoechst 33342); assay type: cell-based, rat; conditions: GLP-1 10 nM
Protocol: The fluorescent DNA binding dye Hoescht 33342 was used to measure apoptotic cell death. […] Cells were fixed in a solution of 4% paraformaldehyde in PBS and membranes were permeabilized with 0.2% Trition X-100. Following incubation with Hoechst 33342 (1 μM) for 30 min, nuclei were visualized under epifluorescence illumination (340 nm excitation, 510 nm barrier filter) using a 40× oil-immersion objective. Approximately 200 cells were counted in at least three separate dishes for each treatment condition, and experiments were repeated at least twice. Cells were considered apoptotic if nuclear DNA was fragmented or condensed, whereas cells with nuclear DNA of a more diffuse and uniform distribution, were considered viable. At the time of counting, the investigator was unaware of the identity of the treatment groups. The percentage of cells with condensed or fragmented nuclei was determined in each culture.

Aβ1-40 [4] = assay: Aβ1-40 in whole brain homogenates after i.c.v. infusion in control mice; assay type: in vivo, mouse; conditions: 48 h
Protocol: Lean db+/db+ control male mice (n=24) were anaesthetized with 50 mg/kg pentobarbitone and placed in a stereotaxic surgical frame with mouse adaptor (David Kopf Instruments, Tujunga, Calif.) using temporal bone cup holders. […] After 48 h all animals were sacrificed by cervical dislocation, the brains removed and rapidly frozen in liquid nitrogen. Brains were pulverized and stored at −80° C. prior to assaying for Aβ levels.
Equivalent volumes of conditioned media and whole brain homogenate were assayed for Aβ1-40 using a sandwich ELISA (Suzuki et. al., 1994). The monoclonal antibody BAN50 (raised against Aβ1-16) was used as the capture antibody for all species of Aβ (Aβ1-40 and Aβ1-42), and the monoclonal antibody BA27 was used to specifically detect Aβ1-40 levels. Levels of Aβ1-40 were expressed in pM concentrations for conditioned media samples and finol/g for the mouse brain homogenates, as deduced from the appropriate standard curve run in parallel with the assay.

[5] = tested on: cultured hippocampal cells; assay: Survival of hippocampal neurons exposed to Aβ1-42 or Fe2+; assay type: cell-based, rat; conditions: 2 h pretreatment, then 2 μM Aβ (1-42) or 1 μM Fe2+ for 24 hours
Protocol: Hippocampi were removed from embryonic day 18 Sprague-Dawley rats, and cells were dissociated by mild trypsination and trituration and seeded onto polyethyleneimine-coated plastic 35 mm diameter dishes at a density of approximately 150 cells/mm^2 of culture surface. Cultures-were maintained in Neurobasal medium containing B-27 supplements (Gibco BRL, Carlsbad, Calif.), 2 mM L-glutamine, 1 mM Hepes and 0.001% gentamicin sulfate (Sigma, St. Louis, Mo.) in a 6% CO2/94% room air atmosphere at 37° C. When maintained under these conditions, the hippocampal cultures consisted of approximately 95% neurons and 5% astrocytes as determined by immunostaining with antibodies against the neuronal antigen NeuN and the astrocyte protein glial fibrillary acidic protein. Aβ1-42 was purchased from Bachem (Torrance, Calif.) and was prepared as a 1 mM stock solution in sterile water. FeSO4 was prepared as a 200 μM stock in sterile water.
Neuronal survival was quantified as described previously (Mark et. al., 1997). Briefly, viable neurons in premarked fields (10× objective) were counted before experimental treatment and at specified time points thereafter. […] Cultures were then exposed to 2 μM Aβ (1-42) or 1 μM Fe^2+ for 24 hours. […]

Fischer-344 rats = assay: Ibotenic acid induced cholinergic marker deficit, i.c.v. infusion
[6] = tested on: β-amyloid precursor protein (βAPP); assay: Western immunoblot of βAPP (cell lysates) and sAPP (conditioned media) in PC12 cells; conditions: day 3, relative to untreated

Compound: CC[C@H](C)[C@H](NC(=O)[C@H](Cc1ccccc1)NC(=O)[C@H](CCC(=O)O)NC(=O)[C@H](CCCCN)NC(=O)[C@H](C)NC(=O)[C@H](C)NC(=O)[C@H](CCC(N)=O)NC(=O)CNC(=O)[C@H](CCC(=O)O)NC(=O)[C@H](CC(C)C)NC(=O)[C@H](Cc1ccc(O)cc1)NC(=O)[C@H](CO)NC(=O)[C@H](CO)NC(=O)[C@@H](NC(=O)[C@H](CC(=O)O)NC(=O)[C@H](CO)NC(=O)[C@@H](NC(=O)[C@H](Cc1ccccc1)NC(=O)[C@@H](NC(=O)CNC(=O)[C@H](CCC(=O)O)NC(=O)[C@H](C)NC(=O)[C@@H](N)Cc1c[nH]cn1)[C@@H](C)O)[C@@H](C)O)C(C)C)C(=O)N[C@@H](C)C(=O)N[C@@H](Cc1c[nH]c2ccccc12)C(=O)N[C@@H](CC(C)C)C(=O)N[C@H](C(=O)N[C@@H](CCCCN)C(=O)NCC(=O)N[C@@H](CCCNC(=N)N)C(N)=O)C(C)C [GLP-1, glucagon-like peptide-1]
- stability in human serum (N-terminal truncated product by MALDI) [1]: considerable increase in the amount of N-terminal truncated product
- Aβ1-40 levels in conditioned media (Aβ1-40 [2]): did not significantly alter levels of Aβ1-40 production
- differentiation / neurite outgrowth (PC12 cells): produced similar effects on differentiation to those induced by NGF
- synaptophysin expression (synaptophysin): dramatically reduced the expression of the synaptophysin protein
- Beta-2/NeuroD expression (43 kDa band) (Beta-2/NeuroD): increased following GLP-1 treatment
- apoptotic cells, concurrent treatment with glutamate ([3]; 10 μM glutamate overnight, exendin-4 0.3 μM (medium alone 23%, glutamate 73%)): 24%
- protection against apoptotic effects of glutamate ([3]; 10 μM glutamate, exendin-4 0.3 μM): completely protected
- apoptotic cells, peptide alone ([3]; exendin-4 0.3 μM, no glutamate): 20%
- reduction of Aβ1-40 levels compared to vehicle (Aβ1-40 [4]; 3.3 μg GLP-1 i.c.v., not significant): 16%
- reduction of Aβ1-40 levels compared to vehicle (Aβ1-40 [4]; 6.6 μg GLP-1 i.c.v., p<0.01): 36%
- concentration of maximum protective effect against death induced by Aβ1-42 and Fe2+ [5]: 10 nM
- Abercrombie corrected ChAT-positive cell counts, Left basal nucleus (lesion side) (Fischer-344 rats; Lesion (ibotenic acid)): 404 ± 59
- Abercrombie corrected ChAT-positive cell counts, Right basal nucleus (infusion side) (Fischer-344 rats; Lesion (ibotenic acid)): 423 ± 45
- Abercrombie corrected ChAT-positive cell counts, Left basal nucleus (lesion side) (Fischer-344 rats; Sham): 517 ± 50
- Abercrombie corrected ChAT-positive cell counts, Right basal nucleus (infusion side) (Fischer-344 rats; Sham): 499 ± 41
- food and water intake, body weight during infusion (Fischer-344 rats; i.c.v. minipump infusion): modestly aphagic and adipsic
- loss of ChAT-immunoreactive cell bodies in left basal nucleus below that of the right basal nucleus (Fischer-344 rats; ibotenic acid lesion, 14 days i.c.v. infusion (vehicle 43%)): 6%
- intracellular levels of βAPP (cell lysates) [6]: significantly decreased intracellular levels of βAPP
